Results on 14 compounds are retold here after PubChem BioAssay AID256 (DTP/NCI, 2004).

Toxic doses and inconclusive results are not listed.

The test concerns CD2F1 mice, L1210 leukemia ip, survival T/C. Briefly: NCI In Vivo Anticancer Drug Screen. Data for tumor model L1210 Leukemia (intraperitoneal) in CD2F1 (CDF1) mice. The conditions noted are these: endpoint: mean survival time, higher = longer survival. The method, boiled down:
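Each value reflects a quotient of treated over vehicle control outcomes in mice with a transplanted tumor.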

The mark [1] stands for this setting: dose: 100.0 mg/kg/injection, schedule: Q04DX003 (ip), vehicle: saline with Tween-80.
Where [2] appears, read: dose: 100.0 mg/kg/injection, schedule: Q01DX001 (ip), vehicle: saline.
The mark [3] stands for this setting: dose: 200.0 mg/kg/injection, schedule: Q01DX001 (ip), vehicle: saline.
Setting [4] is: dose: 400.0 mg/kg/injection, schedule: Q01DX001 (ip), vehicle: saline.
Where [5] appears, read: dose: 200.0 mg/kg/injection, schedule: Q04DX003 (ip), vehicle: saline with Tween-80.
Where [6] appears, read: dose: 400.0 mg/kg/injection, schedule: Q04DX003 (ip), vehicle: saline with Tween-80.
[7] abbreviates: dose: 100.0 mg/kg/injection, schedule: Q04DX002 (ip), vehicle: saline with Tween-80.

With `CCC(C)(O)c1cnc(CC(C)C)c(=O)n1O` (stereo not given), the T/C runs as follows: (dose: 75.0 mg/kg/injection, schedule: Q01DX001 (ip), vehicle: saline) 98 % of control; (dose: 150.0 mg/kg/injection, schedule: Q01DX001 (ip), vehicle: saline) 102 % of control.
In the case of `CN(C)CCC(=O)/C=C\c1ccccc1`, the T/C (dose: 100.0 mg/kg/injection, schedule: Q04DX003 (ip), vehicle: saline) is 89 % of control.
Consider `Cc1c2cnccc2c(C)c2c1c1ccccc1n2CCCCCCNCc1ccccc1`, for which the T/C was 95 % of control (dose: 25.0 mg/kg/injection, schedule: Q04DX003 (ip), vehicle: saline with Tween-80); 89 % of control (dose: 50.0 mg/kg/injection, schedule: Q04DX003 (ip), vehicle: saline with Tween-80); 95 % of control under setting [1].
Turning to `CCN1/C(=C\c2ccc3cc(C)ccc3[n+]2CC)[Se]c2ccccc21`, the T/C was 105 % of control (dose: 1.25 mg/kg/injection, schedule: Q01DX001 (ip), vehicle: other); 101 % of control (dose: 2.5 mg/kg/injection, schedule: Q01DX001 (ip), vehicle: other); 106 % of control (dose: 5.0 mg/kg/injection, schedule: Q01DX001 (ip), vehicle: other).
For the compound `Cc1ccc2nc(-c3ccc(NC(=O)c4ccc(C(=O)Nc5ccc(-c6nc7ccc(C)cc7s6)cc5)cc4)cc3)sc2c1`, the T/C is, setting by setting: under setting [2], 89 % of control; under setting [3], 89 % of control; under setting [4], 86 % of control.
As to `OC(CN1CCOCC1)CN1CCOCC1`, the T/C under setting [2] is 104 % of control, the T/C under setting [3] is 104 % of control and the T/C under setting [4] is 103 % of control.
As to `O=C1CCC(=O)N1C1C=CC=CC=C1`, the T/C (dose: 50.0 mg/kg/injection, schedule: Q04DX003 (ip), vehicle: acetone) is 98 % of control and the T/C (dose: 100.0 mg/kg/injection, schedule: Q04DX003 (ip), vehicle: acetone) was 107 % of control.
Regarding `Cc1ccc(-c2[nH]c(=S)[nH]c(=O)c2CCO)cc1`, the T/C reads like this: under setting [1], 91 % of control; under setting [5], 97 % of control; under setting [6], 93 % of control.
In the case of `O=C(Nc1ccc(Nc2ccncc2)cc1)c1ccc(Nc2ccnc3ccccc23)cc1[N+](=O)[O-]`, the T/C by setting is: (dose: 100.0 mg/kg/injection, schedule: Q01DX001 (ip), vehicle: saline with Tween-80) 98 % of control; (dose: 200.0 mg/kg/injection, schedule: Q01DX001 (ip), vehicle: saline with Tween-80) 96 % of control; (dose: 400.0 mg/kg/injection, schedule: Q01DX001 (ip), vehicle: saline with Tween-80) 95 % of control.
For the compound `CCC(CNCCCC(=O)O)(C(=O)O)C(=O)O`, the T/C is, setting by setting: (dose: 25.0 mg/kg/injection, schedule: Q04DX002 (ip), vehicle: saline with Tween-80) 98 % of control; (dose: 50.0 mg/kg/injection, schedule: Q04DX002 (ip), vehicle: saline with Tween-80) 94 % of control; under setting [7], 102 % of control.
Consider `O=C1CCc2cccc3cccc(c23)N1`, for which the T/C by setting is: under setting [1], 98 % of control; under setting [5], 98 % of control; under setting [6], 90 % of control.
`CC(C)/C(=N\[N+](C)(C)C)c1ccccc1`: the T/C (dose: 18.8 mg/kg/injection, schedule: Q01DX009 (ip), vehicle: saline) is 97 % of control; the T/C (dose: 37.5 mg/kg/injection, schedule: Q01DX009 (ip), vehicle: saline) was 96 % of control; the T/C (dose: 75.0 mg/kg/injection, schedule: Q01DX009 (ip), vehicle: saline) is 91 % of control.
On to `CC(=O)C1CC(=O)c2c(O)ccc(O)c2C1` (stereo not given), for which the T/C (dose: 12.5 mg/kg/injection, schedule: Q01DX009 (ip), vehicle: water) is 95 % of control; the T/C (dose: 25.0 mg/kg/injection, schedule: Q01DX009 (ip), vehicle: water) is 101 % of control; the T/C (dose: 50.0 mg/kg/injection, schedule: Q01DX009 (ip), vehicle: water) was 95 % of control; the T/C (dose: 100.0 mg/kg/injection, schedule: Q01DX009 (ip), vehicle: water) was 100 % of control; the T/C (dose: 200.0 mg/kg/injection, schedule: Q01DX009 (ip), vehicle: water) was 100 % of control.
For `C=Cc1cnc(N)nc1-c1ccc(OC)cc1`, the T/C by setting is: under setting [7], 101 % of control; (dose: 200.0 mg/kg/injection, schedule: Q04DX002 (ip), vehicle: saline with Tween-80) 96 % of control; (dose: 400.0 mg/kg/injection, schedule: Q04DX002 (ip), vehicle: saline with Tween-80) 96 % of control.
